Species: Cavia porcellus
Assay: Ratio of Kinactivation to KI of guinea pig recombinant liver TGase expressed in Escherichia coli

Row | Ratio [mM⁻¹ min⁻¹] | SMILES
1 | 0.43 | COC(=O)CNC(=O)[C@H](CCCN1C(=O)C=CC1=O)NC(=O)OCc1ccccc1
2 | 17.1 | O=C(N[C@@H](CCCCN1C(=O)C=CC1=O)C(=O)OCc1ccccc1)OCc1ccccc1
3 | 6.26 | O=C(N[C@@H](CCCN1C(=O)C=CC1=O)C(=O)OCc1ccccc1)OCc1ccccc1
4 | 0.28 | COC(=O)CNC(=O)[C@H](CCN1C(=O)C=CC1=O)NC(=O)OCc1ccccc1
5 | 0.67 | O=C(N[C@@H](CCN1C(=O)C=CC1=O)C(=O)OCc1ccccc1)OCc1ccccc1
6 | 0.83 | COC(=O)CNC(=O)[C@H](CCCCN1C(=O)C=CC1=O)NC(=O)OCc1ccccc1
